Our source for the IC50 and inhibition values is US20050261288A1, “Tetracyclic lactam derivatives and uses thereof” (priority 2004, published 2005).

For this experiment, the target named is T1, PARP (Mus musculus, UniProt P11103).
T1 construct: endogenous in cells; host or cells: RAW mouse macrophages
The experiment in a line: PARP activation in cultured murine macrophages, whole-cell macrophage assay (peroxynitrite-induced). The format is cell-based. To be noted: for IC50: PARP activation in cultured murine macrophages. Here is the method: Without being bound by theory, Applicants believe that Tetracyclic Lactam Derivatives that inhibit PARP are useful for treating or preventing a Condition.
In a typical procedure, RAW mouse macrophages are cultured in DMEM medium with high glucose and supplemented with 10% fetal bovine serum. Cells are used at 80% confluence in 12-well plates. Cells are pretreated with various concentrations (100 nM-1 μM) of a Tetracyclic Lactam Derivative for 10 min. Peroxynitrite, a prototypical oxidant which induces DNA single strand breakage, is used to induce PARP activation. In a typical assay, peroxynitrite is diluted in phosphate buffered saline (PBS) (pH 11.0) and added to the cells in a bolus of 50 μL. Cells are then incubated for 20 minutes. Peroxynitrite is decomposed by incubation for 30 min at pH 7.0, and used as a control. After the 20 minute incubation period, the cells are spun, the medium is aspirated and the cells are resuspended in 0.5 mL assay buffer (56 mM HEPES pH 7:5, 28 mM KCl, 28 mM NaCl, 2 mM MgCl2, 0.01% w/v digitonin and 0.125 μM NAD^+ and 0.5 μCi/ml ^3H-NAD^+). Following incubation in assay buffer, (10 min at 37° C.), PARP activity can be measured as follows: 200 μL ice cold 50% w/v TCA is added and the samples are incubated for 4 h at 4° C. Samples are then spun (10 min @ 10,000 g) and the resulting pellets are washed twice with ice cold 5% w/v TCA and solubilized overnight in 250 μL 2% w/v SDS/0.1 N NaOH at 37° C. The contents of the tubes are added to 6.5 mL ScintiSafe Plus scintillation liquid (Fisher Scientific) and radioactivity is determined using a liquid scintillation counter (Wallac, Gaithersburg, Md.).
Examples of the inhibitory effects of illustrative Tetracyclic Lactam Derivatives in the whole-cell macrophage assay are illustrated in Tables 3 and 4 below.

T1 sequence (P11103 whole entry): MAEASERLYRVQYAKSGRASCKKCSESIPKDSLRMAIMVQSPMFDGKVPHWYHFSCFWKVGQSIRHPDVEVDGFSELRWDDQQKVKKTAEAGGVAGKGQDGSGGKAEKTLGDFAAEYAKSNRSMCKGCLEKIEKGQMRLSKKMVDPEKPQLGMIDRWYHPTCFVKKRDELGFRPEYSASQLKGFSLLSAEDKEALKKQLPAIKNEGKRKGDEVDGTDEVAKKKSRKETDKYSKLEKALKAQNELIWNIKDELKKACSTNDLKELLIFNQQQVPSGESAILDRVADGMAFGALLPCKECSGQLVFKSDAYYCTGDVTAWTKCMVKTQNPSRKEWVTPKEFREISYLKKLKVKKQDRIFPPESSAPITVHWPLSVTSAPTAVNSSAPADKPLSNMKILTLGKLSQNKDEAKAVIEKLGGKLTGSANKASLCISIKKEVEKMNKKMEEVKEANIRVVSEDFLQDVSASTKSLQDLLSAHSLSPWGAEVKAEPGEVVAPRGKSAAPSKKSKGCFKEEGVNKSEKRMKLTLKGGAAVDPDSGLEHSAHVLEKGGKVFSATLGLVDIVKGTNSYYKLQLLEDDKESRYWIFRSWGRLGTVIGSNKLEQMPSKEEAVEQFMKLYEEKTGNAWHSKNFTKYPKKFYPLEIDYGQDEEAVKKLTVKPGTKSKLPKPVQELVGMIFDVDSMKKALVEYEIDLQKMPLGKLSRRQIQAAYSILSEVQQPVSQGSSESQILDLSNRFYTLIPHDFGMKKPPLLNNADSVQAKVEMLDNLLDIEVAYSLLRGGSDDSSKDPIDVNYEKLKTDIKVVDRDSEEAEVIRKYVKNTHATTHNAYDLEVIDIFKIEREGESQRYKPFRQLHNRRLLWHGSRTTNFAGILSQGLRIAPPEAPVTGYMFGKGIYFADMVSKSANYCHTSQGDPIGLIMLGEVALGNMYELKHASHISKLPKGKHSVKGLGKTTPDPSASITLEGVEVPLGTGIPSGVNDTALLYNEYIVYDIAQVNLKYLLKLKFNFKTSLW

On to `COC(=O)n1c2ccccc2c2[nH]c(=O)c3ccccc3c21` [Compound 61, METHYL-5-OXO-5,6-DIHYDRO-INDOLO[3,2-C]ISOQUINOLINE-11-CARBOXYLATE], for which the IC50 lay in the range of 10 to 100 µM. `CCOC(=O)n1c2ccccc2c2[nH]c(=O)c3ccccc3c21` [Compound 63, ETHYL-5-OXO-5,6-DIRYDRO-INDOLO[3,2-C]ISOQUINOLINE-11-CARBOXYLATE] had an IC50 of 1 to 10 µM. This molecule also returned an inhibition at 0.1 µM (0.1 μM, RAW mouse macrophages, peroxynitrite-induced PARP activation) of 33%. In addition, 0.3 µM produced 43% inhibition (0.3 μM, RAW mouse macrophages, peroxynitrite-induced PARP activation). Further, 1 µM produced 50% inhibition (1 μM, RAW mouse macrophages, peroxynitrite-induced PARP activation). Besides, under “3 μM, RAW mouse macrophages, peroxynitrite-induced PARP activation”, 3 µM produced 65% inhibition. `CCCOC(=O)n1c2ccccc2c2[nH]c(=O)c3ccccc3c21` [Compound 107, N-PROPYL-5-OXO-5,6-DIHYDRO-INDOLO[3,2-C]ISOQUINOLINE-11-CARBOXYLATE] returned an IC50 of 10 to 100 µM. On the same count and under the same terms, for `CC(C)OC(=O)n1c2ccccc2c2[nH]c(=O)c3ccccc3c21` [Compound 108, ISO-PROPYL-5-OXO-5,6-DIHYDRO-INDOLO[3,2-C]ISOQUINOLINE-11-CARBOXYLATE] the value was 10 to 100 µM; for `CCCCOC(=O)n1c2ccccc2c2[nH]c(=O)c3ccccc3c21` [Compound 109, N-BUTYL-5-OXO-5,6-DIHYDRO-INDOLO[3,2-C]ISOQUINOLINE-11-CARBOXYLATE], 10 to 100 µM.
